Experiments:
Type in all cases: in vivo
[1] = system: Abutilon theophrasti (ABUTH); assay: Post-emergence herbicidal action, greenhouse pot test; conditions: rated visually after about 3 weeks vs untreated controls, 100% = plants have died
How it was run: (§1)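 Greenhouse-grown weeds in sandy loam were sprayed post-emergence at the one-leaf stage, 2–3 weeks after sowing. Compounds were formulated as WP or EC in water with 0.5% additive at 600 l/ha, at rates of 20 g/ha or less. Visual rating after about 3 weeks used a scale from 0% (like untreated control) to 100% (plants dead).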

[2] = system: Amaranthus retroflexus (AMARE); assay: as above; conditions: rated visually after about 3 weeks vs untreated controls, 100% = plants have died
How it was run: as §1

[3] = system: Avena fatua (AVEFA); assay: as above; conditions: 20 g/ha, rated visually after about 3 weeks vs untreated controls, 100% = plants have died
How it was run: as §1

[4] = system: Pharbitis purpurea (PHBPU); assay: as above
How it was run: as §1

[5] = system: Polygonum convolvulus (POLCO); assay: as above
How it was run: as §1

[6] = system: Veronica persica (VERPE); assay: as above
How it was run: as §1

[7] = system: Viola tricolor (VIOTR); assay: as above
How it was run: as §1

[8] = system: Alopecurus myosuroides (ALOMY); assay: Post-emergence herbicidal action, greenhouse pot test (also comparative test C); conditions: rated visually after about 3 weeks vs untreated controls, 100% = plants have died
How it was run: (§2)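 Greenhouse pot plants in sandy loam were sprayed post-emergence at the one-leaf stage (2–3 weeks after sowing) with WP or EC formulations plus 0.5% additive at 600 l/ha water. Activity was rated visually after about 3 weeks versus untreated controls (100% = dead, 0% = like control); rates were 20 g/ha or less, and 5 g/ha or less in the comparative test.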

[9] = system: Echinochloa crus-galli (ECHCG); assay: as above
How it was run: as §2

[10] = system: Matricaria inodora (MATIN); assay: as above
How it was run: as §2

[11] = system: Setaria viridis (SETVI); assay: as above
How it was run: as §2

[12] = system: Triticum aestivum (TRZAS); assay: Post-emergence crop plant compatibility, greenhouse pot test; conditions: vs untreated controls
How it was run: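 Greenhouse-grown crop plants sprayed post-emergence at the one-leaf stage with WP or EC formulations plus 0.5% additive, at 600 l/ha water. Damage rated visually after about 3 weeks versus untreated controls (0% = like control, 100% = dead); suffixes a/b/c denote different dosages.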

[13] = system: Oryza sativa (ORYSA); assay: Post-emergence crop plant compatibility, greenhouse pot test (also comparative test C); conditions: for Post-emergence action against ORYSA (crop plant compatibility): vs untreated controls
How it was run: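 Rice and other crops sprayed post-emergence at one-leaf stage (2–3 weeks after sowing) with WP or EC formulations plus 0.5% additive at 600 l/ha water. Visual rating about 3 weeks later versus untreated controls (100% = dead, 0% = like control); suffixes a–c denote different doses.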

With `Cn1c(C(F)(F)F)cc(=O)n(-c2cc(Oc3ccccc3OCC(=O)OCC#N)c(Br)cc2F)c1=O` [I.8-176, Cyanomethyl (2-{2-bromo-4-fluoro-5-[3-methyl-2,6-dioxo-4-(trifluoromethyl)-3,6-dihydropyrimidin-1(2H)-yl]phenoxy}phenoxy)acetate] the pest or weed control at 1.25 g/ha ([1]; Abutilon theophrasti, 504 h, 1.25 g/ha, read-out: Post-emergence action at 1.25 g/ha against ABUTH in %) was 100%, the pest or weed control at 5 g/ha ([1]; Abutilon theophrasti, 504 h, 5 g/ha, read-out: Post-emergence action at 5 g/ha against ABUTH in %) was 100% and the pest or weed control at 20 g/ha ([1]; Abutilon theophrasti, 504 h, 20 g/ha, read-out: Post-emergence action at 20 g/ha against ABUTH in %) was 100%. The pest or weed control at 1.25 g/ha ([2]; Amaranthus retroflexus, 504 h, 1.25 g/ha, read-out: Post-emergence action at 1.25 g/ha against AMARE in %) was 100%, the pest or weed control at 5 g/ha ([2]; Amaranthus retroflexus, 504 h, 5 g/ha, read-out: Post-emergence action at 5 g/ha against AMARE in %) was 100% and the pest or weed control at 20 g/ha ([2]; Amaranthus retroflexus, 504 h, 20 g/ha, read-out: Post-emergence action at 20 g/ha against AMARE in %) was 100%. For the same compound, the pest or weed control at 20 g/ha ([3]; Avena fatua, 504 h, read-out: Post-emergence action at 20 g/ha against AVEFA in %) was 80%, the pest or weed control at 1.25 g/ha ([4]; Ipomoea purpurea, 504 h, dosage 1.25 g/ha, read-out: Post-emergence action against PHBPU in %) was 80% and the pest or weed control at 5 g/ha ([4]; Ipomoea purpurea, 504 h, dosage 5 g/ha, read-out: Post-emergence action against PHBPU in %) was 80%. For the same compound, the pest or weed control at 20 g/ha ([4]; Ipomoea purpurea, 504 h, dosage 20 g/ha, read-out: Post-emergence action against PHBPU in %) was 100%, the pest or weed control at 5 g/ha ([5]; Fallopia convolvulus, 504 h, dosage 5 g/ha, read-out: Post-emergence action against POLCO in %) was 80% and the pest or weed control at 20 g/ha ([5]; Fallopia convolvulus, 504 h, dosage 20 g/ha, read-out: Post-emergence action against POLCO in %) was 100%. The pest or weed control at 1.25 g/ha ([6]; Veronica persica, 504 h, 1.25 g/ha, read-out: Post-emergence action against VERPE) was 100%, the pest or weed control at 5 g/ha ([6]; Veronica persica, 504 h, 5 g/ha, read-out: Post-emergence action against VERPE) was 100% and the pest or weed control at 20 g/ha ([6]; Veronica persica, 504 h, 20 g/ha, read-out: Post-emergence action against VERPE) was 100%. For the same compound, the pest or weed control at 1.25 g/ha ([7]; Viola tricolor, 504 h, 1.25 g/ha, read-out: Post-emergence action against VIOTR) was 90%, the pest or weed control at 5 g/ha ([7]; Viola tricolor, 504 h, 5 g/ha, read-out: Post-emergence action against VIOTR) was 100% and the pest or weed control at 20 g/ha ([7]; Viola tricolor, 504 h, 20 g/ha, read-out: Post-emergence action against VIOTR) was 100%. For the same compound, the pest or weed control at 5 g/ha ([8]; Alopecurus myosuroides, 504 h, 5 g/ha, read-out: Post-emergence action at 5 g/ha against ALOMY in %) was 80%, the pest or weed control at 20 g/ha ([8]; Alopecurus myosuroides, 504 h, 20 g/ha, read-out: Post-emergence action at 20 g/ha against ALOMY in %) was 100% and the pest or weed control at 5 g/ha ([9]; Echinochloa crus-galli, 504 h, dosage 5 g/ha, read-out: Post-emergence action against ECHCG in %) was 100%. The pest or weed control at 20 g/ha ([9]; Echinochloa crus-galli, 504 h, dosage 20 g/ha, read-out: Post-emergence action against ECHCG in %) was 100%, the pest or weed control at 5 g/ha ([10]; Tripleurospermum inodorum, 504 h, dosage 5 g/ha, read-out: Post-emergence action against MATIN in %) was 100% and the pest or weed control at 20 g/ha ([10]; Tripleurospermum inodorum, 504 h, dosage 20 g/ha, read-out: Post-emergence action against MATIN in %) was 100%. It also gave a pest or weed control at 20 g/ha ([11]; Setaria viridis, 504 h, 20 g/ha, read-out: Post-emergence action against SETVI) of 100%, a pest or weed control at 1.25 g/ha ([11]; Setaria viridis, 504 h, dosage 1.25 g/ha, read-out: Post-emergence action against SETVI in %) of 100% and a pest or weed control at 5 g/ha ([11]; Setaria viridis, 504 h, dosage 5 g/ha, read-out: Post-emergence action against SETVI in %) of 100%. The “Post-emergence action against TRZAS (crop plant compatibility)” value (shortened to “Post-emergence action against TRZAS”) ([12]; 1.25 g/ha) was 0%, the “Post-emergence action against TRZAS” value ([12]; 5 g/ha) was 20% and the “Post-emergence action against ORYSA (crop plant compatibility)” value ([13]; 1.25 g/ha) was 0%. For the same compound, the “Post-emergence action against ORYSA (crop plant compatibility)” value ([13]; 5 g/ha) was 20%.

With `Cn1c(C(F)(F)F)cc(=O)n(-c2cc(Oc3ccccc3OCC(=O)OCC[N+](=O)[O-])c(Br)cc2F)c1=O` [I.8-183] the “Post-emergence action at 5 g/ha against ABUTH in %” value ([1]; 5 g/ha) was 100%, the “Post-emergence action at 20 g/ha against ABUTH in %” value ([1]; 20 g/ha) was 100% and the “Post-emergence action at 1.25 g/ha against AMARE in %” value ([2]; 1.25 g/ha) was 100%. For the same compound, the “Post-emergence action at 5 g/ha against AMARE in %” value ([2]; 5 g/ha) was 100%, the “Post-emergence action at 20 g/ha against AMARE in %” value ([2]; 20 g/ha) was 100% and the “Post-emergence action at 20 g/ha against AVEFA in %” value [3] was 100%. For the same compound, the “Post-emergence action against PHBPU in %” value ([4]; dosage 5 g/ha) was 100%, the “Post-emergence action against PHBPU in %” value ([4]; dosage 20 g/ha) was 100% and the “Post-emergence action against POLCO in %” value ([5]; dosage 5 g/ha) was 100%. The “Post-emergence action against POLCO in %” value ([5]; dosage 20 g/ha) was 100%, the “Post-emergence action against VERPE” value ([6]; 5 g/ha) was 100% and the “Post-emergence action against VERPE” value ([6]; 20 g/ha) was 100%. The “Post-emergence action against VIOTR” value ([7]; 1.25 g/ha) was 100%, the “Post-emergence action against VIOTR” value ([7]; 5 g/ha) was 100% and the “Post-emergence action against VIOTR” value ([7]; 20 g/ha) was 100%. The “Post-emergence action at 5 g/ha against ALOMY in %” value ([8]; 5 g/ha) was 80%, the “Post-emergence action at 20 g/ha against ALOMY in %” value ([8]; 20 g/ha) was 100% and the “Post-emergence action against ECHCG in %” value ([9]; dosage 5 g/ha) was 100%. For the same compound, the “Post-emergence action against ECHCG in %” value ([9]; dosage 20 g/ha) was 100%, the “Post-emergence action against MATIN in %” value ([10]; dosage 5 g/ha) was 80% and the “Post-emergence action against MATIN in %” value ([10]; dosage 20 g/ha) was 100%. The “Post-emergence action against SETVI” value ([11]; 20 g/ha) was 100%, the “Post-emergence action against SETVI in %” value ([11]; dosage 1.25 g/ha) was 100% and the “Post-emergence action against SETVI in %” value ([11]; dosage 5 g/ha) was 100%. The “Post-emergence action against TRZAS” value ([12]; 1.25 g/ha) was 0%, the “Post-emergence action against TRZAS” value ([12]; 5 g/ha) was 20% and the “Post-emergence action against ORYSA (crop plant compatibility)” value ([13]; 1.25 g/ha) was 0%. For the same compound, the “Post-emergence action against ORYSA (crop plant compatibility)” value ([13]; 5 g/ha) was 0% and the “Post-emergence action against ORYSA in %” value ([13]; 20 g/ha, crop plant compatibility) was 0%.
